This passage reports T/C results from PubChem BioAssay AID200 (DTP/NCI, 2004).

Several values for one entry are separate records, joined by “and”; a condition that tells them apart may be missing. Equal entries are not always repeated. Inconclusive results and toxic doses are left out. Where a SMILES comes first, the peptide text is derived from it. The star is where a group is joined. Cbz = O=C(OCc1ccccc1)*; Bn = c1ccc(C*)cc1

In the assay the test system is B6C3F1 mice, B16 melanoma ip, median survival T/C. Description: NCI In Vivo Anticancer Drug Screen. Data for tumor model B16 Melanoma (intraperitoneal) in B6C3F1 mice. Particulars: endpoint: median survival time, higher = longer survival. An outline of the steps:
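Readout: survival or tumor size in treated mice relative to vehicle controls (T/C). Model uses transplantable tumors grown in mice.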

Setting [1] is: dose: 6.25 mg/kg/injection, schedule: Q01DX009 (ip), vehicle: saline.
[2] abbreviates: dose: 12.5 mg/kg/injection, schedule: Q01DX009 (ip), vehicle: saline.
[3] abbreviates: dose: 25.0 mg/kg/injection, schedule: Q01DX009 (ip), vehicle: saline.
The mark [4] stands for this setting: dose: 50.0 mg/kg/injection, schedule: Q01DX009 (ip), vehicle: saline.
The mark [5] stands for this setting: dose: 100.0 mg/kg/injection, schedule: Q01DX009 (ip), vehicle: saline.
[6] abbreviates: dose: 12.5 mg/kg/injection, schedule: Q01DX009 (ip), vehicle: Klucel (hydroxypropylcellulose) (HPC).
The mark [7] stands for this setting: dose: 25.0 mg/kg/injection, schedule: Q01DX009 (ip), vehicle: Klucel (hydroxypropylcellulose) (HPC).
Where [8] appears, read: dose: 50.0 mg/kg/injection, schedule: Q01DX009 (ip), vehicle: Klucel (hydroxypropylcellulose) (HPC).
The mark [9] stands for this setting: dose: 6.25 mg/kg/injection, schedule: Q01DX009 (ip), vehicle: Klucel (hydroxypropylcellulose) (HPC).
Where [10] appears, read: dose: 25.0 mg/kg/injection, schedule: Q01DX009 (ip), vehicle: saline with Tween-80.
The mark [11] stands for this setting: dose: 50.0 mg/kg/injection, schedule: Q01DX009 (ip), vehicle: saline with Tween-80.
Setting [12] is: dose: 100.0 mg/kg/injection, schedule: Q01DX009 (ip), vehicle: saline with Tween-80.
Setting [13] is: dose: 200.0 mg/kg/injection, schedule: Q01DX009 (ip), vehicle: saline with Tween-80.
Setting [14] is: dose: 3.12 mg/kg/injection, schedule: Q01DX009 (ip), vehicle: saline.
Where [15] appears, read: dose: 20.0 mg/kg/injection, schedule: Q01DX009 (ip), vehicle: saline with Tween-80.
Setting [16] is: dose: 40.0 mg/kg/injection, schedule: Q01DX009 (ip), vehicle: saline with Tween-80.

As to `NCCCNCCCCNC(=O)C(O)NC(=O)CCCCCCN=C(N)N` (stereo unspecified), the T/C was 108 % of control under setting [1] and 95 % of control under setting [2].
For `C=C(C)C(=O)OCC12CCC(C)=CC1OC1C(O)C(OC(=O)CCl)C2(C)C12CO2` (stereo unspecified), the T/C (dose: 0.5 mg/kg/injection, schedule: Q01DX009 (ip), vehicle: water) was 163 % of control; the T/C (dose: 1.0 mg/kg/injection, schedule: Q01DX009 (ip), vehicle: water) is 163 % of control; the T/C (dose: 2.0 mg/kg/injection, schedule: Q01DX009 (ip), vehicle: water) is 159 % of control.
Consider `CCCC(NC(=O)CN)C(=O)O` (stereo unspecified), for which the T/C under setting [3] was 108 % of control; the T/C under setting [4] was 100 % of control; the T/C under setting [5] is 99 % of control; the T/C (dose: 200.0 mg/kg/injection, schedule: Q01DX009 (ip), vehicle: saline) is 94 % of control; the T/C (dose: 400.0 mg/kg/injection, schedule: Q01DX009 (ip), vehicle: saline) is 108 % of control.
Turning to `CN=C(NC#N)NCCSCc1nc[nH]c1C`, the T/C was 114 % of control under setting [6]; 96 % of control under setting [7]; 104 % of control under setting [8]; 101 % of control (dose: 100.0 mg/kg/injection, schedule: Q01DX009 (ip), vehicle: Klucel (hydroxypropylcellulose) (HPC)); 102 % of control (dose: 200.0 mg/kg/injection, schedule: Q01DX009 (ip), vehicle: Klucel (hydroxypropylcellulose) (HPC)); 98 % of control (dose: 400.0 mg/kg/injection, schedule: Q01DX009 (ip), vehicle: Klucel (hydroxypropylcellulose) (HPC)).
With `CCCC1C/C=C/C=C/C=C/C=C/C(OC2OC(C)C(O)C(N)C2O)CC(O)C(C(=O)O)C(O)CC(=O)CC(O)CCCC(=O)CC(O)C(CC)C(=O)O1` (stereo unspecified), the T/C (dose: 2.5 mg/kg/injection, schedule: Q01DX009 (ip), vehicle: Klucel (hydroxypropylcellulose) (HPC)) is 114 % of control; the T/C (dose: 5.0 mg/kg/injection, schedule: Q01DX009 (ip), vehicle: Klucel (hydroxypropylcellulose) (HPC)) was 106 % of control; the T/C (dose: 10.0 mg/kg/injection, schedule: Q01DX009 (ip), vehicle: Klucel (hydroxypropylcellulose) (HPC)) was 104 % of control; the T/C (dose: 20.0 mg/kg/injection, schedule: Q01DX009 (ip), vehicle: Klucel (hydroxypropylcellulose) (HPC)) is 89 % of control.
For the compound `CC1[C@@H]2CC=C3[C@H]4CCC5Cc6nc7c(nc6C[C@@]5(C)C4CC(=O)[C@]32CO[C@]12OC(C)(C)CC2O)CC1CC[C@@H]2C3=C[C@H]4O[C@@]5(O[C@@](C)(CO)C[C@@H]5O)C(C)[C@@]4(O)[C@]3(C)[C@@H](O)CC2[C@]1(C)C7` (stereo partly specified), the T/C reads like this: (dose: 6.25 micrograms/kg/injection, schedule: Q01DX009 (ip), vehicle: saline + alcohol) 101 % of control; (dose: 12.5 micrograms/kg/injection, schedule: Q01DX009 (ip), vehicle: saline + alcohol) 98 % of control; (dose: 25.0 micrograms/kg/injection, schedule: Q01DX009 (ip), vehicle: saline + alcohol) 98 % of control; (dose: 50.0 micrograms/kg/injection, schedule: Q01DX009 (ip), vehicle: saline + alcohol) 102 % of control.
Take `CCN=C=NCCCN(C)C`: the T/C was 109 % of control under setting [1] and 114 % of control under setting [2].
For `C=C1C(=O)O[C@@H]2[C@H]3O[C@]3(C)CCC=C(C)CC[C@@H]12`, the T/C runs as follows: under setting [9], 91 % of control; under setting [6], 97 % of control; under setting [7], 98 % of control; under setting [8], 108 % of control.
For the compound `CC(/C=C/c1ccccc1)=Nc1ccccc1`, the T/C was 99 % of control (dose: 12.5 mg/kg/injection, schedule: Q01DX009 (ip), vehicle: saline with Tween-80); 102 % of control under setting [10]; 99 % of control under setting [11]; 115 % of control under setting [12]; 110 % of control under setting [13].
With `COC12[C@@H]3N[C@@H]3CN1C1=C(C(=O)C(NCCSSCCNC3=C(C)C(=O)C4=C(C3=O)C(COC(N)=O)[C@]3(OC)C5N[C@@H]5CN43)=C(C)C1=O)[C@@H]2COC(N)=O` (stereo partly specified), the T/C (dose: 0.75 mg/kg/injection, schedule: Q04DX003 (ip), vehicle: suspension in saline) is 193 % of control; the T/C (dose: 1.5 mg/kg/injection, schedule: Q04DX003 (ip), vehicle: suspension in saline) was 190 % of control; the T/C (dose: 3.0 mg/kg/injection, schedule: Q04DX003 (ip), vehicle: suspension in saline) is 218 % of control; the T/C (dose: 6.0 mg/kg/injection, schedule: Q04DX003 (ip), vehicle: suspension in saline) was 218 % of control; the T/C (dose: 12.0 mg/kg/injection, schedule: Q04DX003 (ip), vehicle: suspension in saline) is 218 % of control.
For the compound `Nc1ncnc2c1ncn2C1OC(CO)C(O)C1O` (stereo unspecified), the T/C runs as follows: (dose: 1.56 mg/kg/injection, schedule: Q01DX009 (ip), vehicle: saline) 94 % of control; under setting [14], 94 % of control; under setting [1], 96 % of control; under setting [2], 107 % of control; under setting [3], 63 % of control; under setting [4], 45 % of control. Also, under setting [5], the T/C was 37 % of control.
For `O=C(Nc1ccccc1CCl)Nc1ccccc1CCl`, the T/C is, setting by setting: under setting [10], 111 % of control; under setting [11], 115 % of control; under setting [12], 115 % of control; under setting [13], 118 % of control.
On to `[Cl][Sn]([c]1ccccc1)[c]1ccccc1`, for which the T/C by setting is: under setting [14], 116 % of control; (dose: 3.13 mg/kg/injection, schedule: Q01DX009 (ip), vehicle: saline) 93 % of control; under setting [1], 122 % of control and 106 % of control; under setting [2], 107 % of control; under setting [3], 118 % of control.
Turning to `O=C(NC(CSCc1ccccc1)C(=O)NC(Cc1ccc(O)cc1)C(=O)O)OCc1ccccc1` (stereo unspecified) (Cbz-Cys(Bn)-Tyr-OH; configuration not given here), the T/C reads like this: under setting [12], 90 % of control; under setting [13], 101 % of control; (dose: 400.0 mg/kg/injection, schedule: Q01DX009 (ip), vehicle: saline with Tween-80) 87 % of control.
In the case of `CC(C)CC(=O)NC(C(=O)NC(C(=O)NC(CC(C)C)C(O)CC(=O)NC(C)C(=O)NC(CC(C)C)C(O)CC(=O)O)C(C)C)C(C)C` (stereo unspecified), the T/C runs as follows: under setting [9], 102 % of control; under setting [6], 93 % of control; under setting [7], 96 % of control; under setting [8], 88 % of control.
`COc1ccc(N=C(C)C2C(=O)c3ccccc3C2=O)cc1`: the T/C is, setting by setting: (dose: 50.0 mg/kg/injection, schedule: Q01DX009 (ip), vehicle: DMSO) 103 % of control; (dose: 100.0 mg/kg/injection, schedule: Q01DX009 (ip), vehicle: DMSO) 103 % of control; (dose: 200.0 mg/kg/injection, schedule: Q01DX009 (ip), vehicle: DMSO) 105 % of control; (dose: 400.0 mg/kg/injection, schedule: Q01DX009 (ip), vehicle: DMSO) 116 % of control; (dose: 800.0 mg/kg/injection, schedule: Q01DX009 (ip), vehicle: DMSO) 97 % of control.
In the case of `O=c1cc(-c2ccc3ccccc3n2)oc2ccc(Cl)cc12`, the T/C reads like this: (dose: 10.0 mg/kg/injection, schedule: Q01DX009 (ip), vehicle: saline with Tween-80) 99 % of control; under setting [15], 101 % of control; under setting [16], 95 % of control.
On to `[Cl][Pt+2][Cl].[NH-]c1cc2ccccc2cc1[NH-]`, for which the T/C by setting is: under setting [15], 89 % of control; under setting [16], 104 % of control; (dose: 80.0 mg/kg/injection, schedule: Q01DX009 (ip), vehicle: saline with Tween-80) 98 % of control; (dose: 160.0 mg/kg/injection, schedule: Q01DX009 (ip), vehicle: saline with Tween-80) 99 % of control; (dose: 320.0 mg/kg/injection, schedule: Q01DX009 (ip), vehicle: saline with Tween-80) 111 % of control.
